For data set [1] the following is noted: cited from earlier work.
The test system of data set [2] is BJ foreskin fibroblasts. Put plainly: CyQuant viability assay, control cell line. In kind it is cell-based. As for the experimental part: (§1) To survey the effects of DON on neuroblastomas and Ewing's sarcomas, DON was tested on six neuroblastoma (SK-N-AS, SK-N-BE(2), SK-N-FI, IMR32, Kelly, and SH-SySy) and three Ewing's sarcoma cell lines (SK-N-MC, RD-ES and SK-ES-1) and a control immortalized foreskin fibroblast cell line (BJ). Using the CyQuant viability assay, the respective sensitivities of each cell line to DON were determined after 72 hrs of treatment in a universal media (EMEM, 10% FBS, 0.5 mM glutamine) containing physiological levels of glutamine and glucose. […] More strikingly, all three Ewing's sarcoma cell lines were especially sensitive to DON with an 80% loss in cell viability (FIG. 1B).
(§2) 6-diazo-5-oxo-L-norleucine (Sigma Aldrich, St. Louis, Mo.) and epigallocatechin-3-gallate (Sigma Aldrich, St. Louis, Mo.) were solubilized in water, aminooxyacetate (Sigma Aldrich, St. Louis, Mo.), obatoclax mesylate (Selleckchem,), and ABT-263 (Sellekchem) were dissolved in 100% dimethyl sulfoxide (DMSO). In a 96-well tissue culture plate, 5×10^4 cells were plated in 100 ul of media containing EMEM, 10% FBS and 0.5 mM glutamine per well. Four hours after plating drugs were diluted to a 2× concentration in plating media and added to wells. Plates were incubated for 72-hrs and then submitted to CyQuant Cell Direct Proliferation Assay (Life Technologies) according to manufacturer's instructions and read with a Synergy HT Multi-mode microplate reader (Biotek).

The subject of data set [3] is neuroblastoma and Ewing's sarcoma cell lines. Put plainly: CyQuant viability assay, panel of NB and Ewing's sarcoma cell lines. In kind it is cell-based. The note with it: for effectiveness on cancer cell lines: broad ranges of drug concentrations; for efficacy as single agent in vitro: single agents; for single agent effect: more glutamine-addicted cell lines such as IMR32, Kelly, RD-ES and SK-ES-1. Here is the method:
as §1, with “1B). […]” for “1B).”
as §2

The test system of data set [4] is SK-N-BE(2) cells. Kind of data set: Annexin / propidium iodide staining (FACS). It is filed as cell-based. The following applies: 100 μM DON 72 hrs. Here is the method: (§3) To investigate the effects of DON on proliferation and cell death in vivo, additional NB tumor studies using SK-N-AS and SK-N-BE(2) cells were set up. Tumors in each cohort were allowed to grow to ˜1000 mm^3 before they underwent one round of DON treatment at 100 mg/kg of DON twice a week. On day 4, the second dose of DON was given 6-hrs prior and BrdU injected 2 hours prior to harvesting the tumors for histology (FIG. 3A).
(§4) To measure early apoptosis, cells were plated in EMEM media containing 0.5 mM L-glutamine, 10% FBS, and 1% Penicillin/Streptomycin, then treated+/−100 μM DON for 72 hours. Both adherent and floating cells in the media were collected at harvest, and 3×10^5 cells were then stained with Annexin-V-FITC antibody for 15 minutes at room temperature. Cells were then counterstained with propidium iodide (9.1 μM final concentration) and filtered through a 40 μm nylon mesh. Immediately after staining, samples were analyzed by the Flow Cytometry and Cell Sorting Shared Resource facility at St. Jude Children's Research Hospital.

For data set [5], the system named is SK-N-AS cells. Kind of data set: Annexin / propidium iodide staining (FACS). In kind it is cell-based. The note with it: 100 μM DON 72 hrs. As for the experimental part:
as §3, §4

Data set [6] deals with SK-N-AS tumors. Kind of data set: IHC of BrdU and cleaved caspase-3 in tumors. The following applies: ~1000 mm^3 tumors, 100 mg/kg DON day 1 and day 4. In kind it is in vivo, mice. Here is the method:
as §3
(§5) For in vivo labeling of proliferating cells, mice with subcutaneous SK-N-AS or SK-N-BE(2) tumors (1000 mm^3) were treated with DON and injected with BrdU (BD Biosciences). Mice were given an intraperitoneal (i.p.) injection of 100 mg/kg DON on day 1 and again on day 4. Four hours after the second dose of DON, mice were injected i.p. with 150 μl of 10 mg/ml BrdU. Tumor tissue was harvested 2 hours after addition of BrdU and samples were fixed in 10% formalin. Paraffin-embedded tissue sections were then stained for BrdU incorporation by the St. Jude Veterinary Pathology Core.

Data set [7] concerns SK-N-BE(2) tumors. Put plainly: IHC of BrdU and cleaved caspase-3 in tumors. The following applies: ~1000 mm^3 tumors, 100 mg/kg DON day 1 and day 4. In kind it is in vivo, mice. Here is the method: as §3, §5
For data set [8] the following is noted: children, previous work; cited from earlier work.
Data set [9] has as its system SK-N-AS tumors. Kind of data set: Subcutaneous tumor growth. In kind it is in vivo, mice. The following applies: 100 mg/kg twice a week I.P. Here is the method: (§6) DON's effects on NB and EWS tumors in vivo were assessed. Subcutaneous tumors for the neuroblastoma cell lines SK-N-AS and SK-N-BE(2) as well as the Ewing's Sarcoma cell lines SK-N-MC and SK-ES-1 were grown to at least 200 mm^3 and were then randomized into either DON or control treatment groups. Mice were then treated with 100 mg/kg of DON or water control twice a week by intraperitoneal (I.P.) injection, equivalent to a twice a week dose of 300 mg/m^2 in children. Previous work has shown that a dose as high as 520 mg/m^2 was safely achievable in children. […] To attempt to extend the course of treatment, mice either were treated with half the dose at 50 mg/kg twice a week or with a once weekly injection of 100 mg/kg (1×/wk). The effectiveness of the original drug regimen was compared to the two new treatment schedules using mice with subcutaneous tumors from the most DON-resistant (SK-N-FI) and the most DON-sensitive (SK-N-MC) cell line in vitro. This experiment would allow for the determination whether the in vitro data was predictive of differences in response to DON in vivo. Both of the new drug regimens allowed a significant extension in length of treatment from 11 days to greater than 24 days. However, only the 50 mg/kg dose was effective against both tumor types. […] In addition, the SK-N-BE2 and IMR32 neuroblastoma cell lines were tested at the 50 mg/kg dose in mice with subcutaneous tumors. The 50 mg/kg dose was effective against both tumor types (FIG. 7 A-C).
(§7) For subcutaneous tumor experiments, cells were injected into the hind flank of either 6-8 week old athymic (nu/nu) mice (Charles River) or into Rag2^−/−; gamma c^−/− mice (kindly provided by Dr. Shannon McKinney-Freeman). No difference in tumor growth kinetics was observed between different strains. SK-N-AS, SK-N-MC, and SK-ES-1 cells were injected at 2×10^6 cells per mouse in 100 μl total volume. SK-N-BE(2) cells were injected in a 1:1 mix of cells and Matrigel (BD Biosciences) at a final concentration of 2×10^6 cells per mouse. Tumor size was measured by digital caliper, and tumor volume was calculated using the formula 1/2*(length*width^2). When tumors reached an average size of 200 mm^3 mice were randomized into treatment groups. On the day of treatment, mice were weighed then given an intraperitoneal (i.p.) injection of either 100 mg/kg DON, 50 mg/kg or water control. All animal experiments were performed in accordance with the guidelines established by IACUC.

For data set [10], the system named is SK-N-BE(2) tumors. Kind of data set: Subcutaneous tumor growth. It is filed as in vivo, mice. Here is the method:
as §6, §7

Data set [11] deals with SK-ES-1 tumors. Kind of data set: Subcutaneous tumor growth. In kind it is in vivo, mice. The note with it: 100 mg/kg twice a week I.P. As for the experimental part:
as §6, §7

Data set [12] concerns IMR32 tumors. Put plainly: Subcutaneous tumor growth. It is filed as in vivo, mice. The following applies: 50 mg/kg twice weekly I.P. As for the experimental part: as §6, §7
In data set [13] the test system is SK-N-MC tumors. Put plainly: Subcutaneous tumor growth. It is filed as in vivo, mice. Here is the method:
as §6, §7

Data set [14] relates to SK-N-FI tumors. Put plainly: Subcutaneous tumor growth. It is filed as in vivo, mice. The note with it: 50 mg/kg twice a week I.P. As for the experimental part: as §6, §7
Data set [15] deals with SK-N-FI cells. Put plainly: CyQuant viability assay. It is filed as cell-based. The following applies: DON 72 hrs; EMEM, 10% FBS, 0.5 mM glutamine. As for the experimental part:
as §1
as §2, with “Four hours after plating drugs were diluted to a 2× concentration in plating media and added to wells.” left out

Data set [16] concerns Ewing's sarcoma cell lines (SK-N-MC, RD-ES and SK-ES-1). Put plainly: CyQuant viability assay, Ewing's sarcoma cell lines. It is filed as cell-based. The note with it: all three Ewing's sarcoma cell lines; DON 72 hrs. Here is the method: as §1
as §2, with “Four hours after plating drugs were diluted to a 2× concentration in plating media and added to wells.” left out

Data set [17] concerns SK-N-BE(2) cells. Put plainly: Cell cycle analysis by BrdU labeling (FACS). It is filed as cell-based. The note with it: 100 μM DON 72 hrs. Here is the method: as §3
(§8) In vitro cell cultures were pulse-labeled with 10 μM BrdU (BD Biosciences) for 90 minutes at 37° C., and then fixed and stained with Anti-BrdU-FITC antibody and 7-AAD (BD Biosciences, #559619), according to manufacturer's protocol. Stained samples were then analyzed by the Flow Cytometry and Cell Sorting Shared Resource facility at St. Jude Children's Research Hospital.
On the technique in general: Dividing cells build labelled thymidine or BrdU into new DNA.

For data set [18], the system named is SK-N-AS cells. Kind of data set: Cell cycle analysis by BrdU labeling (FACS). In kind it is cell-based. The following applies: 100 μM DON 72 hrs. Here is the method: as §3, §8
The nature of data set [19]: Tolerability in tumor-bearing mice (weight loss, length of treatment). In kind it is in vivo. As for the experimental part: as §6
For subcutaneous tumor experiments, cells were injected into the hind flank of either 6-8 week old athymic (nu/nu) mice (Charles River) or into Rag2^−/−; gamma c^−/− mice (kindly provided by Dr. Shannon McKinney-Freeman). No difference in tumor growth kinetics was observed between different strains. SK-N-AS, SK-N-MC, and SK-ES-1 cells were injected at 2×10^6 cells per mouse in 100 μl total volume. […] Tumor size was measured by digital caliper, and tumor volume was calculated using the formula 1/2*(length*width^2). […]

The conditions of data set [20]: in vivo; cited from earlier work.

Counter-ions that a name gives are not always drawn. Like-named read-outs stand apart in the source and are kept apart here. Bounds are passed on as bounds.

As to `CC1(C)CCC(c2ccc(Cl)cc2)=C(CN2CCN(c3ccc(C(=O)NS(=O)(=O)c4ccc(N[C@H](CCN5CCOCC5)CSc5ccccc5)c(S(=O)(=O)C(F)(F)F)c4)cc3)CC2)C1` [ABT-263, navitoclax], in [1] (in vivo, po), the oral bioavailability entry is “orally bioavailable”. Further, in data set [1] (in vivo), the “major adverse side effect” value is “thrombocytopenia”; the safety and tolerability result was “safe and well-tolerated”. In [1] (phase I and phase II clinical trials in adults), the tolerability result was “well tolerated”. In data set [2], the “toxicity to BJ cells” value is on record as “non-toxic”. In addition, in [3], the “effectiveness on cancer cell lines” value is “effective on all the cancer cell lines tested” and the “efficacy as single agent in vitro” value is recorded as “some efficacy”.
As to `NOCC(=O)O` [AOA, aminooxyacetate], the single agent effect entry in data set [3] is on record as “effective as single agents”.
`[N-]=[N+]=CC(=O)CC[C@H](N)C(=O)O` [DON, 6-diazo-5-oxo-L-norleucine]: the cell death entry in data set [4] and in [5] was “increase in cell death” each time. For the same compound, the caspase-3 cleavage entry in data set [6] is “no difference”. Also, the “reduction in BrdU incorporation” value in data set [6] and in data set [7] was greater than 90% throughout. The “increase in caspase-3 cleavage” value in [7] is “greater than 2 fold”. The dose safely achievable in data set [8] was no more than 520 mg/m^2. Also, in data set [2] (broad ranges of drug concentrations), the “toxicity to BJ cells” value is on record as “non-toxic”. Moreover, the tumor growth entry in [9] is reported as “greatly reduced growth”; in data set [10] (50 mg/kg twice weekly I.P.) it was “effective”; in [10] (100 mg/kg twice a week I.P.), “greatly reduced growth”; in data set [11], “dramatically blocked growth”; in data set [12] it was “effective”; in [13] (50 mg/kg twice a week I.P.), “effective”. Further, the tumor growth result in data set [13] (100 mg/kg twice a week I.P.) is “dramatically blocked growth”; in data set [14], “effective”. Further, in data set [15], the “reduction in cell numbers” value is given as 20%. In [16], the “loss in cell viability” value was found to be 80%. In addition, the “entry into the S-phase of the cell cycle” value in [17] and in [18] was “reduced entry into the S-phase” in each case. The length of treatment result is listed as “greater than 24 days” in data set [19] (50 mg/kg twice a week or 100 mg/kg once weekly) and 11 days in data set [19] (original regimen 100 mg/kg twice a week). The “weight loss in the mice” value in [19] (100 mg/kg twice a week I.P.) was “caused weight loss”. For the same compound, the “sensitivity to DON” value in data set [3] (all cell lines except control BJ, 72 hrs) is “some sensitivity”. Besides, the “effectiveness on cancer cell lines” value in data set [3] is reported as “effective on all the cancer cell lines tested”. The “loss in cell numbers” value in [3] (multiple cell lines, DON 72 hrs, 0.5 mM glutamine) was “greater than 60%”. In addition, in [3], the “efficacy as single agent in vitro” value is given as “some efficacy”.
Consider `CC1=C(/C=C/C(C)=C/C=C/C(C)=C/C(=O)Nc2ccc(O)cc2)C(C)(C)CCC1` [fenretinide, N-(4-hydroxyphenyl)retinamide], for which the bioavailability entry in data set [20] is “poor bioavailability”. Also, the “toxicity to BJ cells” value in data set [2] is given as “non-toxic”. Also, the “effectiveness on cancer cell lines” value in data set [3] is reported as “effective on all the cancer cell lines tested”.
`COC1=CC(c2cc3ccccc3[nH]2)=N/C1=C\c1[nH]c(C)cc1C` [obatoclax mesylate]: in data set [3], the “efficacy as single agent in vitro” value is on record as “some efficacy”.
For the compound epigallocatechin-3-gallate [EGCG], the single agent effect result in data set [3] is “effective as single agents”.

These data come from patent US20160022708A1, “METHODS AND COMPOSITIONS FOR THE TREATMENT OF GLUTAMINE-ADDICTED CANCERS” (ST. JUDE CHILDREN'S RESEARCH HOSPITAL, priority 2013, published 2016).
